Test results reported in publication PMC6150271, “‘Click Chemistry’ Synthesis of Novel Natural Product-Like Caged Xanthones Bearing a 1,2,3-Triazole Moiety with Improved Druglike Properties as Orally Active Antitumor Agents” (Molecules : A Journal of Synthetic Chemistry and Natural …, 2017).
In brackets after ≈: the same amount, converted by molar mass. Like-named read-outs stand apart in the source and are kept apart here. Marks after values point to notes of the source that are not given here.

How the values were obtained:
[1] = test system: lung cancer A549 transplanted mouse model; test: In vivo tumor growth inhibition, intravenous administration; set-up: species or system Kunming mice; conditions: for Body Weight After-Dose / Inhibitory Rate / Weight of Tumor: two weeks
Method: The lung cancer A549 transplanted mouse model was employed. DDO-6101 and antitumor drug 5-fluorouracil (5-FU) were also tested for comparison.
(§1) Kunming mice with body weights of 18–22 g were transplanted with lung cancer A549 cells according to protocols of transplant tumor research, as previously reported. Twenty-four hours after tumor transplantation, animals were weighed and randomly divided into five groups. All test drugs were given […] 24 h after tumor transplantation. The treated groups were intravenously injected or administered per os different doses of test compounds, respectively. The negative control group received 0.9% normal saline. Treatments were conducted at a frequency of one dose per two days for the intravenous group or one dose per day for the per os group for two or one week, respectively. All animals were sacrificed 24 h after the final treatment. All data are presented as mean ± SD and the statistical significance was evaluated by t-test.

U2OS cells = test: MTT antiproliferative assay, U2OS; format: cell-based; conditions: Homo sapiens, 72 h
[2] = test system: human colon carcinoma HCT-116 cell line; test: MTT antiproliferative assay, HCT116; format: cell-based; conditions: 72 h
Method: (§2) The antiproliferative activity of the ten synthesized caged xanthone derivatives, as well as the lead compound DDO-6101 and GA were assessed with the 3-(4,5-dimethylthiazol-2-yl)-2,5-diphenyltetrazolium bromide (MTT) assay, as previously reported, against six human cancer cell lines, including the human lung carcinoma A549 cell line, taxol-resistant A549 cell line (A549/taxol), cisplatin-resistant A549 cell line (A549/cisplatin), the human hepatocellular carcinoma HepG2 cell line, the human colon carcinoma HCT-116 cell line, and the human glioblastoma U251 cell line. DDO-6101 and GA were used as positive controls for the in vitro assay.
(§3) Cancer cell lines were obtained from Cell Bank of Shanghai, Chinese Academy of Sciences. Cells were cultured in 90% RPMI 1640 medium (GIBCO, Invitrogen Corporation, New York, NY, USA) supplemented with 10% fetal bovine serum (Sijiqing Biotechnology Co., Hangzhou, China), 100 U/mL benzyl penicillin, and 100 μg/mL streptomycin in a humidified environment with 5% CO2 at 37 °C. All the tested compounds were dissolved in DMSO at a concentration of 0.01 mol/L and stored at −4 °C.
(§4) The inhibition of tumour cell growth was measured by a modified tetrazolium (MTT) salt assay. Cells were cultured in a 96-well plate and treated with culture medium alone or different concentrations of the compounds. The cells were incubated for 72 h, and then the MTT assay reagent was added. After a 4 h incubation, the formazan product was quantitated at 570 nm. The IC50 values (the concentrations that gave rise to 50% inhibition of cell viability) were calculated using GraphPad Prism 6 using a variable slope (four parameters).

[3] = test system: human lung carcinoma A549 cell line; test: MTT antiproliferative assay, A549; format: cell-based; conditions: for IC50: Homo sapiens, A549, MTT, 72 h
Method: as §2, §3, §4

[4] = Aqueous solubility by HPLC; conditions: deionized water, thermodynamic from solid
Source text: (§5) In parallel with the in vitro antitumor activity testing, the physicochemical properties of the target caged xanthone derivatives were theoretically predicted and experimentally determined in an effort to identify potential druglike compounds prior to the time-consuming and costly development and optimization of derivatives that may ultimately fail in efficacy experiments in vivo. The partition coefficient (logD) was experimentally determined on a Gemini Profiler instrument (pION, Inc., Woburn, MA, USA) by a potentiometric titration method. The polar surface area (PSA), as well as intestinal absorption level, were theoretically predicted by Accelrys Discovery Studio 4.0 (BIOVIA, San Diego, CA, USA) using the ADMET protocol. […] The permeability coefficient (Pe) was determined using a standard parallel artificial membrane permeability assay (PAMPA) on a PAMPA Explorer instrument (pION).
(§6) A HPLC system with an ultraviolet (UV) detector was used to detect the solubility of the compounds. The optimal wavelength was 290 nm. Ethanol/water (85:15) was an efficient eluent at a flow rate of 0.5 mL/min. The compounds were stirred in deionized water overnight to maximize the retention of the compounds in solution. Then, the solutions were filtered and the supernatant was used as a fluid sample for HPLC detection. The permeability (Pe) of the compounds was tested with the help of a standard PAMPA (pION). PAMPA was performed on a PAMPA Explorer instrument (pION) with the PAMPA Explorer command software (Version 3.7.4.1). The compounds were diluted to 10 mM with the system solution buffer (pH 7.4). Then, 150 μL of the diluted compound solution was transferred to a UV plate, and the UV spectrum was collected and used as a reference. Then, paint the membrane with 5 μL of gastrointestinal tract (GIT) lipid. The acceptor chamber was filled with 200 μL of acceptor solution buffer, and the donor chamber was filled with 200 μL of diluted compound solution. The PAMPA sandwich was assembled and left at 25 °C for 4 h. The UV spectra (240–500 nm) from the donor and the acceptor were collected. The permeability coefficient was calculated with the PAMPA Explorer Command software (Version 3.7.4.1) based on the area under the curve (AUC) of the reference plate, the donor plate, and the acceptor plate. The permeability coefficient of the compound was tested for four times, and the data are shown as the average values.

[5] = test system: human hepatocellular carcinoma HepG2 cell line; test: MTT antiproliferative assay, HepG2; format: cell-based; conditions: 72 h
Method: as §2, §3, §4

[6] = logD by potentiometric titration (Gemini Profiler); format: physicochemical; conditions: pH 7.4; measured on Gemini Profiler instrument (pION); read-out: Log D 7.4
[7] = test system: cisplatin-resistant A549 cell line (A549/cisplatin); test: MTT antiproliferative assay, A549/cisplatin; format: cell-based; conditions: Homo sapiens, 72 h
Method: as §2, §3, §4

[8] = test system: lung cancer A549 transplanted mouse model; test: In vivo tumor growth inhibition, per os administration; set-up: species or system Kunming mice; conditions: for Body Weight After-Dose / Inhibitory Rate / Weight of Tumor: 50 mg/kg daily, one week; for Body Weight Pre-Dose: 50 mg/kg
Source text: Subsequently, 8g was set to determine further its in vivo efficacy with per os administration on the growth of inoculated A549 in mice using DDO-6101 as a comparison control. […] Thus, compound 8g was identified as a new and orally-active natural-product-like caged xanthone and also a promising antitumor agent for further clinical development.
as §1

[9] = Parallel artificial membrane permeability assay (PAMPA)
Source text: as §5
as §6, with “The PAMPA sandwich was assembled and left at 25 °C for 4 h.” left out

[10] = test system: taxol-resistant A549 cell line (A549/taxol); test: MTT antiproliferative assay, A549/taxol; format: cell-based; conditions: Homo sapiens
Method: as §2, §3, §4

[11] = A549/Taxol, MTT, 72 h, read-out: IC50 A549/Taxol

IC50 (U2OS cells) | IC50 [2] | IC50 [3] | solubility [4] | IC50 [5] | logD [6] | IC50 [7] | Papp at 4 h, 10 mM ([9]; pH 5) | Papp at 4 h, 10 mM ([9]; pH 6.2) | Papp at 4 h, 10 mM ([9]; pH 7.4) | IC50 [10, 11] | SMILES | Body Weight Pre-Dose ([1]; 20 mg/kg) | Body Weight After-Dose ([1]; 20 mg/kg) | Inhibitory Rate ([1]; 20 mg/kg) | Weight of Tumor ([1]; 20 mg/kg) | Body Weight After-Dose [8] | Inhibitory Rate [8] | Weight of Tumor [8] | Body Weight Pre-Dose [8] | also measured
950 ± 210 nM | 280 ± 30 nM | 310 ± 20 nM | 3.02 mM (≈ 1740 µg/mL) | 3790 ± 430 nM | 1.3 | 330 ± 70 nM | 51.3 ± 4.8 ×10⁻⁶ cm/s | 63.1 ± 5.6 ×10⁻⁶ cm/s | 74.4 ± 6.8 ×10⁻⁶ cm/s | 420 ± 50 nM | CC(C)=CCC12OC(C)(C)C3CC(C=C4C(=O)c5c(OCc6cn(CCN7CCOCC7)nn6)cccc5OC431)C2=O (centres unmarked) [Compound 8g] | 20.67 ± 1.30 g | 27.73 ± 2.78 g | 71.32% | 0.40 ± 0.14 ^b g | 27.73 ± 2.78 g | 66.43% | 0.47 ± 0.12 ^a g | 20.67 ± 1.20 g | Body Weight Pre-Dose ([1]; 5 mg/kg): 20.80 ± 1.53 g; Body Weight After-Dose ([1]; 5 mg/kg): 28.53 ± 2.81 g; Inhibitory Rate ([1]; 5 mg/kg): 30.88%; Weight of Tumor ([1]; 5 mg/kg): 0.94 ± 0.24 ^a g; Body Weight Pre-Dose ([1]; 10 mg/kg): 21.40 ± 1.81 g; Body Weight After-Dose ([1]; 10 mg/kg): 28.08 ± 2.66 g; Inhibitory Rate ([1]; 10 mg/kg): 52.21%; Weight of Tumor [1]: 0.65 ± 0.17 ^b g; fold higher activity than DDO-6101 in A549 cells ([3]; from IC50 values): approximately eight-fold; Pe range ([9]; range under different pH from 5.0 to 7.4): 51.3–74.4 × 10^–6 cm/s; IC50 ([10]; range over both resistant A549 lines and both compounds, read-out: IC50 values, taxol-resistant and cisplatin-resistant A549 cell lines): 330 to 550 nM
5860 ± 210 nM | 1090 ± 210 nM | 930 ± 80 nM | 4.02 mM (≈ 2420 µg/mL) | 2910 ± 30 nM | 0.7 | 1290 ± 110 nM | 9.7 ± 0.5 ×10⁻⁶ cm/s | 43.2 ± 0.7 ×10⁻⁶ cm/s | 64.9 ± 5.4 ×10⁻⁶ cm/s | 820 ± 80 nM | CC(C)=CCC12OC(C)(C)C3CC(C=C4C(=O)c5c(OCc6cn(CCCN7CCN(C)CC7)nn6)cccc5OC431)C2=O (centres unmarked) [Compound 8j] |  |  |  |  |  |  |  |  | melting point: 126 to 129 °C

SMILES | IC50 (U2OS cells) | IC50 [2] | IC50 [3] | solubility [4] | IC50 [5] | logD [6] | IC50 [7] | Papp at 4 h, 10 mM ([9]; pH 5) | Papp at 4 h, 10 mM ([9]; pH 6.2) | Papp at 4 h, 10 mM ([9]; pH 7.4) | IC50 [10, 11] | Body Weight Pre-Dose ([1]; 20 mg/kg) | Body Weight After-Dose ([1]; 20 mg/kg) | Inhibitory Rate ([1]; 20 mg/kg) | Weight of Tumor ([1]; 20 mg/kg) | Body Weight After-Dose [8] | Inhibitory Rate [8] | Weight of Tumor [8] | Body Weight Pre-Dose [8] | also measured
CC(C)=CCC12OC(C)(C)C3CC(C=C4C(=O)c5c(O)cccc5OC431)C2=O (centres unmarked) [DDO-6101, reference compound] | 5350 ± 80 nM | 710 ± 100 nM |  | < 0.005 mM | 2040 ± 80 nM | 2.9 |  | 23.6 ± 5.5 ×10⁻⁶ cm/s | 25.8 ± 1.1 ×10⁻⁶ cm/s | 18 ± 3.9 ×10⁻⁶ cm/s | 460 ± 30 nM | 21.13 ± 1.22 g | 27.69 ± 1.90 g | 34.56% | 0.89 ± 0.18 ^b g | 26.69 ± 1.90 g | 21.43% | 1.10 ± 0.25 ^b g | 21.13 ± 1.02 g | 
